Reference: article PMC11251039, “Harnessing cholesterol uptake of malaria parasites for therapeutic applications” (EMBO Molecular Medicine, 2024)
Several values for one entry are separate records, joined by “and”; a condition that tells them apart may be missing. Equal entries are not always repeated. Where two headings read alike, the source gives them in different places.

What was measured:
[1] = system: asexual P. falciparum 3D7 wild-type parasites; assay: P. falciparum asexual growth inhibition assay (SYBR Safe DNA replication); type: cell-based, Plasmodium falciparum; settings: for P. falciparum asexual growth, percentage of control: replicate values, source data Fig. 2B, listed as BC9B; for IC50: Plasmodium falciparum, read-out: IC50, P. falciparum asexual growth inhibition
Outline: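 Sorbitol-synchronised ring-stage cultures at 1% parasitaemia and 1% haematocrit were exposed to 2-fold compound dilutions at 37 °C under microaerophilic conditions for 24, 48 or 72 h. Growth was read by SYBR Safe fluorescence of freeze-thaw lysates, with 200 nM chloroquine or artesunate defining background.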

[2] = system: Toxoplasma gondii tachyzoites (RH strain); assay: Toxoplasma growth inhibition assay (tdTomato fluorescence, in HFF cells); type: cell-based; settings: Toxoplasma gondii, HFF, 72 h; read-out: IC50, T. gondii tachyzoite growth inhibition
Method: Fluorescence was measured daily with a fluorescence microplate reader for one week, and the background fluorescence from the time 0 reading was subtracted from all other measurements. […]
Toxoplasma Growth Inhibition Assays:
Growth inhibition was investigated as described previously (26). Fluorescent Toxoplasma gondii parasites were inoculated into an optical bottom 96-well plate containing confluent human foreskin fibroblast (HFF) host cells at a density of 2,000 parasites/well, with a serial dilution of each compound, or culture media/DMSO (0.1% v/v) alone. Plates were measured daily with a FluoStar Optima fluorescence plate reader at 540 nm excitation and 590 nm emission for one week, and the background fluorescence from the time 0 reading was subtracted from all other measurements. […]

[3] = system: human embryonic kidney cells (HEK293); assay: Human embryonic kidney cell viability assay (MTT); type: cell-based; settings: Homo sapiens; 96 h, HEK293; read-out: IC50, human embryonic kidney cell inhibition (viability)
Outline: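 HEK293 cells, 5,000 per well, exposed to serially diluted compound for 96 hours; 10 µg/mL cycloheximide as background control. Viability by MTT (0.45 mg/mL, 2 h), SDS solubilisation, absorbance at 570 nm.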

[4] = system: P. berghei liver stages; assay: Plasmodium berghei liver stage growth inhibition assay (luminescence, in Huh7 cells); settings: for P. berghei liver stage growth, dose-response data points (Figure 3A): replicate data points; for P. berghei liver stage growth, dose-response data points (Figure 3A) / Figure 3E dose-response value (replicates): listed as BC9B

Compound: COc1cc(NC(C)CCCNC(=O)CCC(=O)OC(C)C)c2ncccc2c1 (stereo not shown) [PQ-link]
- P. falciparum asexual growth, percentage of control ([1]; 0.390625000 uM, 24 h): 112.3% and 89.93% and 91.19% and 112.1% and 102.3% and 68.21% and 112.6% and 108.2% and 99.03%
- P. falciparum asexual growth, percentage of control ([1]; 0.781250000 uM, 24 h): 111.4% and 122.1% and 101.9% and 105.4% and 82.4% and 103% and 111.6% and 99.14% and 89.9%
- P. falciparum asexual growth, percentage of control ([1]; 1.562500000 uM, 24 h): 124.5% and 109.9% and 95.57% and 96.52% and 118.5% and 100.1% and 113.4% and 107.6% and 105.7%
- P. falciparum asexual growth, percentage of control ([1]; 3.125000000 uM, 24 h): 111% and 101.9% and 103% and 119.5% and 108.6% and 102.2% and 109.1% and 102.4% and 93.98%
- P. falciparum asexual growth, percentage of control ([1]; 6.250000000 uM, 24 h): 79.77% and 100.5% and 104.2% and 100.4% and 95.65% and 80.04% and 97.39% and 93.98% and 89.23%
- P. falciparum asexual growth, percentage of control ([1]; 12.500000000 uM, 24 h): 91.36% and 89.64% and 70.76% and 87.57% and 76.11% and 68.83% and 96.23% and 85.41% and 71.02%
- P. falciparum asexual growth, percentage of control ([1]; 25.000000000 uM, 24 h): 68.25% and 69.29% and 40.14% and 53.66% and 42.59% and 27.83% and 74.48% and 57.35% and 79.45%
- P. falciparum asexual growth, percentage of control ([1]; 50.000000000 uM, 24 h): 54.3% and 2.851% and -9.844% and -3.605% and -29.04% and -23.19% and 22.95% and 7.441% and 8.158%
- IC50 ([1]; 3D7, 48 h): 21.9 µM
- IC50 ([1]; 3D7, 72 h): 16.1 µM
- IC50 ([1]; 3D7, 24 h, starting at ring stages): 25.2 µM
- IC50 [2]: 27.1 µM
- IC50 [3]: 13.3 µM
- P. berghei liver stage growth, dose-response data points (Figure 3A) ([4]; 0.015241580 uM): 92.27 and 99.03 and 108.7 and 82.7 and 111.9 and 105.4 and 99.3 and 85.25 and 115.4
- P. berghei liver stage growth, dose-response data points (Figure 3A) ([4]; 0.045724740 uM): 97.1 and 81.64 and 78.74 and 103.7 and 110.1 and 105.2 and 93.19 and 87.52 and 92.15
- P. berghei liver stage growth, dose-response data points (Figure 3A) ([4]; 0.137174210 uM): 100 and 94.2 and 80.68 and 93.41 and 113.2 and 98.29 and 109.9 and 94.24 and 87.26
- Figure 3E dose-response value (replicates) ([4]; 0.238281250 uM): 98.59
- P. berghei liver stage growth, dose-response data points (Figure 3A) ([4]; 0.411522630 uM): 112.6 and 99.03 and 80.68 and 102.2 and 100.8 and 100.3 and 103.8 and 90.84 and 80.37
- Figure 3E dose-response value (replicates) ([4]; 0.476562500 uM): 90.54 and 104.6 and 95.37 and 97.54 and 101.7 and 100.2 and 97.21 and 100.9 and 86.29 and 94.55 and 90.62
- P. berghei liver stage growth, dose-response data points (Figure 3A) ([4]; 1.234567900 uM): 102.9 and 94.2 and 112.6 and 111.7 and 103.5 and 88.53 and 119.6 and 97.91 and 82.29
- Figure 3E dose-response value (replicates) ([4]; 1.906250000 uM): 91.51 and 91.73 and 86.54 and 84.53 and 94.62 and 101.5 and 100.5 and 102.9 and 93.23 and 96 and 85.81
- P. berghei liver stage growth, dose-response data points (Figure 3A) ([4]; 3.703703700 uM): 97.1 and 64.25 and 91.3 and 55.79 and 60.08 and 47.34 and 73.56 and 51.31 and 52.36
- Figure 3E dose-response value (replicates) ([4]; 3.812500000 uM): 95.8 and 93.79 and 78.58 and 83.98 and 89.72 and 104 and 93.76 and 101.5 and 80.15 and 95.42 and 85.86
- Figure 3E dose-response value (replicates) ([4]; 7.625000000 uM): 98.29 and 86.67 and 78.83 and 80.78 and 88.54 and 106.8 and 100.5 and 90.89 and 82.41 and 82.35 and 77.49
- P. berghei liver stage growth, dose-response data points (Figure 3A) ([4]; 11.111111100 uM): 24.64 and 16.91 and 28.5 and 18.53 and 18.77 and 20.08 and 31.94 and 26.35 and 21.2
- Figure 3E dose-response value (replicates) ([4]; 15.250000000 uM): 60.3 and 56.28 and 80.98 and 77.04 and 83.07 and 85.06 and 90.81 and 88.28 and 61.89 and 72.05 and 69.51
- Figure 3E dose-response value (replicates) ([4]; 30.500000000 uM): 25.91 and 29.38 and 68.25 and 66.32 and 65.97 and 65.87 and 62.35 and 59.29 and 31.73 and 40.4 and 41.06
- P. berghei liver stage growth, dose-response data points (Figure 3A) ([4]; 33.333333300 uM): 3.382 (2×) and 4.348 and 16.15 and 16.87 and 15.2 and 10.82 and 11.34 and 9.511
- Figure 3E dose-response value (replicates) ([4]; 61.000000000 uM): 6.18 and 4.905 and 12.31 and 10.74 and 14.16 and 15.86 and 12.88 and 14.9 and 2.822 and 2.591 and 2.429
- P. berghei liver stage growth, dose-response data points (Figure 3A) ([4]; 100.000000000 uM): -1.449 and -0.4831 and -2.415 and 1.984 and 3.77 and 1.865 and 3.403 and 2.705 and 2.007
- IC50 ([4]; Plasmodium berghei, Huh-7, 48 h, read-out: IC50, P. berghei liver stage growth inhibition): 5.7 µM
